Assay results as given in paper PMC5607274, “An iterative compound screening contest method for identifying target protein inhibitors using the tyrosine-protein kinase Yes” (Scientific Reports, 2017).

Molecular target: T1, human recombinant Yes [a.a. 2–543 (end)] (Homo sapiens, UniProt P07947)
T1 construct: human recombinant Yes [a.a; 2–543 (end)]; purchased BPS Bioscience 40488
Experiment: ADP-Glo kinase assay, inhibition rates of Yes phosphorylation activity (first and second screening)
Type: biochemical
Details: first screening; mean of n = 4 wells; 10 μmol L−1 compound
Method in brief: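 ADP-Glo luminescence measured inhibition of human recombinant Yes (a.a. 2–543) phosphorylation activity. In the first screen, each compound ran in 4 wells and inhibition rates were averaged. The second screen retested hits as compounds dissolved from fresh powder.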

T1 sequence (P07947 2-543): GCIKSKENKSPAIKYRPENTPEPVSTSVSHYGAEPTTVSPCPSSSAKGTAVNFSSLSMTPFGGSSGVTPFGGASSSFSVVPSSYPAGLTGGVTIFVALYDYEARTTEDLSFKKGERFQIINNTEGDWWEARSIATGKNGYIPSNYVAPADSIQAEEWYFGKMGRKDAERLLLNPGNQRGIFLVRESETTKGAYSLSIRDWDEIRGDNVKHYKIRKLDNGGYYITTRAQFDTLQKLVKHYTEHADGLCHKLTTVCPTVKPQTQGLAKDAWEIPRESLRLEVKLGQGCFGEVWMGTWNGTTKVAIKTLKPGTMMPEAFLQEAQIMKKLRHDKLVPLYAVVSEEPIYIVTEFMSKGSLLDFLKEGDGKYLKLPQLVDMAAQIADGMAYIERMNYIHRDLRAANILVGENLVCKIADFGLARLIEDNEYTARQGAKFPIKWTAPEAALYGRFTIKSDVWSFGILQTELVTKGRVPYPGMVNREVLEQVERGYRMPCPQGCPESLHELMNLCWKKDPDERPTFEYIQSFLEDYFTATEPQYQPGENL

| SMILES | First screening IR (inhibition rate) [%] |
| --- | --- |
| CCCn1c(=O)[nH]c(=O)c2c(C(=O)Nc3ccccc3N3CCOCC3)cc(C3CC3)nc21 [Compound Z337770612] | -5 |
| CC(C)Cn1c(=O)[nH]c(=O)c2c(C(=O)NCc3ccc(CN4CCOCC4)cc3)cc(C3CC3)nc21 [Compound Z338592020] | 6 |
| O=c1c([N+](=O)[O-])c(NCCCn2ccnc2)c2ccccc2n1-c1ccccc1 [Compound Z339024634] | -22 |
| O=C(Nn1cnc2ccccc21)c1cnn(-c2ccccc2F)c1-n1cccc1 [Compound Z339292340] | 11 |
| O=C(Nc1ccc2ccccc2n1)c1ccc(OCc2cccnc2)cc1 [Compound Z339583070] | -12 |
| N#Cc1ccccc1CSCCNC(=O)N1CCN(c2ncc(C(F)(F)F)cc2Cl)CC1 [Compound Z352490104] | -2 |
| CN(CCCC(=O)O)S(=O)(=O)c1cc(S(C)(=O)=O)ccc1Cl [Compound Z353969056] | 44 |
| CS(=O)(=O)c1ccc(Cl)c(S(N)(=O)=O)c1 [Compound Z353972988] | 2 |
| CCC1CCCCN1S(=O)(=O)c1cc(S(C)(=O)=O)ccc1Cl (stereo not drawn) [Compound Z355127288] | 7 |
| CC1CC(C)CN(S(=O)(=O)c2cc(S(C)(=O)=O)ccc2Cl)C1 (stereo not drawn) [Compound Z355129038] | 12 |
| Cc1ccc(-c2cc(C(=O)OCc3nc(C(C)(C)C)no3)n[nH]2)s1 [Compound Z355654248] | 12 |
| Cc1nc2c(cc1C(=O)NCCNc1ccccc1[N+](=O)[O-])c(C)nn2C [Compound Z355820588] | -9 |
| Cc1cc(NC(=O)C(C)SCC(=O)Nc2ccc(SC3CCCC3)cc2)no1 (stereo not drawn) [Compound Z357095098] | -13 |
| CN(C1CCCCC1)S(=O)(=O)N1CCN(c2cn[nH]c(=O)c2Cl)CC1 [Compound Z357945110] | -10 |
| C=CCn1c(-c2ccc(Cl)cc2)nn(CN2CCN(C(=O)c3ccccc3F)CC2)c1=S [Compound Z358275910] | 5 |
| CN1CCCN(c2nc(C(F)(F)F)nc3c2cnn3Cc2ccccc2)CC1 [Compound Z359311942] | -23 |
| CCN(CC)C(=O)CN1CCCN(c2ncnc3c2cnn3C)CC1 [Compound Z359324360] | -4 |
| O=C(Nc1cccc(Cn2ccnc2)c1)c1cc2c(s1)-c1ccccc1OC2 [Compound Z362662212] | 6 |
| O=C(COc1ccc(Br)cc1)Nc1cccc(Cn2ccnc2)c1 [Compound Z362662788] | 8 |
| Cc1ccc(-n2ncc(C(=O)Nc3ccccc3F)c2C2CC2)cc1Cl [Compound Z363094390] | -5 |
| O=C(NCc1ccc(-n2ccnc2)nc1)c1ccc(-c2ccccc2)cc1 [Compound Z363639532] | 3 |
| O=C(/C=C/c1ccc(Br)o1)Nc1ccc(S(=O)(=O)C2CCCC2)cc1 [Compound Z364474850] | 0 |
| Cc1cc(C(=O)Nc2ccc3c(c2)CCC3)ccc1-n1cnnn1 [Compound Z365246124] | 9 |
| O=C(c1ccc(=O)[nH]c1)N1CCN(C(=O)c2cc3ccccc3o2)CC1 [Compound Z368093014] | 48 |

| SMILES | First screening IR (inhibition rate) [%] |
| --- | --- |
| NC(=O)c1cc(NC(=O)c2cc(-c3ccccc3Cl)n[nH]2)ccc1F [Compound Z368298320] | -18 |
| CCC(CC)N(C)S(=O)(=O)c1ccc(S(N)(=O)=O)cc1 [Compound Z369246436] | -4 |
| O=C(NCc1ccccc1)Nc1ccc2oc(C3CC3)nc2c1 [Compound Z369933958] | 11 |
| CC(=O)N1CCN(c2nc(C(F)(F)F)nc3ccsc23)CC1 [Compound Z370715150] | 6 |
| O=C1CN(c2nc(C(F)(F)F)nc3ccsc23)CCN1 [Compound Z370715174] | 26 |
| O=C(Nc1cccc2ncccc12)c1ccc(=O)n(-c2ccc(F)cc2)n1 [Compound Z370787214] | 43 |
| O=C(c1ccoc1)N1CCN(c2ncnc3cc(-c4ccc(F)cc4)sc23)CC1 [Compound Z373317194] | 48 |
| N#Cc1ccc(NC(=O)c2ccn(-c3ccc(F)cc3)n2)cc1 [Compound Z381174904] | 44 |
| Cc1nnc(NC(=O)C2CC(c3cccc(F)c3)=NO2)s1 (stereo not drawn) [Compound Z381180216] | -5 |
| Cc1ccc(-c2nc(N)sc2C)s1 [Compound Z381381388] | -1 |
| COc1ccccc1C(=O)N=Nc1c(O)[nH]c2ccc(C)cc12 [Compound Z381428874] | 15 |
| Cc1sc2nc(CN3CCC(C)CC3)nc(N3CCN(C(=O)c4ccccc4O)CC3)c2c1C [Compound Z381659312] | -12 |
| NC(=O)Nc1ccc(NC(=O)Cc2csc(Cc3ccccc3)n2)cc1 [Compound Z383135670] | -14 |
| O=C(Cc1csc(Cc2ccccc2)n1)Nc1cccc(Cn2ccnc2)c1 [Compound Z383523130] | 46 |
| O=C(Nc1cccc(COc2cccc(F)c2)c1)c1ccc(=O)[nH]n1 [Compound Z383786992] | -2 |
| CC(CCN1CCN(c2ccccc2)CC1)NC(=O)c1cc(-c2ccco2)nc2c1cnn2C(C)C (stereo not drawn) [Compound Z385234634] | 62 |
| Cc1ccc(S(C)(=O)=O)cc1S(N)(=O)=O [Compound Z385450636] | 26 |
| CC(=O)Nc1ccc(SCc2noc(-c3cccc(C)c3)n2)cc1 [Compound Z388276110] | 12 |
| Cc1nc2cc(NC(=O)c3cc(C)n(-c4cccnc4)c3C)ccc2o1 [Compound Z395169542] | 6 |
| Cc1noc2ncc(C(=O)NCc3cccc(Cn4ccnc4)c3)cc12 [Compound Z395825976] | -16 |
| COc1cc(CNC(=O)C2CCCN2C(C)=O)ccc1OCc1cccnc1 (stereo not drawn) [Compound Z396609184] | 7 |
| FC(F)(F)c1ccnc(Nc2cn[nH]c2)n1 [Compound Z397745198] | 2 |
| Cc1cn2nc(NCc3ccc(N4CCNC(=O)C4)cc3)sc2n1 [Compound Z397897560] | 39 |
| O=C(c1ccoc1)N1CCC(NCc2cn[nH]c2-c2ccc(F)cc2)CC1 [Compound Z401874244] | 36 |

| SMILES | First screening IR (inhibition rate) [%] |
| --- | --- |
| O=C(CS(=O)(=O)CCCc1ccccc1)Nc1ccc(-n2ccnc2)nc1 [Compound Z407006622] | -20 |
| c1ccc(-n2ncc3c2CCNC3)cc1 [Compound Z409420032] | -11 |
| CC(CCc1ccc(O)cc1)NC(=O)Nc1ccc(NC(=O)c2ccco2)cc1 (stereo not drawn) [Compound Z412774176] | -12 |
| O=C(NCCSCc1ccccc1)Nc1ccc(NC(=O)c2ccco2)cc1 [Compound Z412775020] | 44 |
| O=C(NCc1cccc(C(F)(F)F)c1)Nc1ccc(NC(=O)c2ccco2)cc1 [Compound Z412775872] | -5 |
| CN(C)C(=O)c1ccc(Cl)c(NC(=O)N2CCc3ccccc3C2)c1 [Compound Z413336660] | 5 |
| COC(=O)c1cn(C)c(-c2ccc(NC(=O)c3ccc(CN4CCCCC4)cc3)cc2)c1C(=O)OC [Compound Z415024646] | -1 |
| N#Cc1ccc(-c2cc(-c3ccccc3)c3cc(Br)ccc3n2)cc1 [Compound Z415722772] | -4 |
| N#Cc1ccc(-c2cc(-c3ccc(Cl)cc3)c3ccccc3n2)cc1 [Compound Z415722774] | 6 |
| CCS(=O)(=O)Cc1cccc(S(=O)(=O)N(C)C)c1 [Compound Z416890194] | -10 |
| O=C(Cc1csc(NC(=O)c2ccccc2F)n1)NCC1Cc2ccccc2O1 (stereo not drawn) [Compound Z420283836] | -5 |
| Cc1nn(C)c2sc(C(=O)NC3CCN(C(=O)C(C)(C)C)CC3)cc12 [Compound Z421731088] | 3 |
| Cc1cc(C(=O)Nc2ccc(N3CCNC(=O)C3)c(Cl)c2)c2ccccc2n1 [Compound Z421986674] | 7 |
| O=C(NCc1ccnc(Oc2ccccc2)c1)c1ccc(OCc2cccnc2)cc1 [Compound Z424307182] | -22 |
| Cc1n[nH]c(C)c1/C=C/C(=O)c1ccc(N2CCCC2=O)cc1 [Compound Z424802904] | 6 |
| Cc1ccc(NC(=O)c2ccc(N3CC(O)=C(c4nc5ccccc5s4)C3=N)cc2)c(O)c1 [Compound Z425227654] | 1 |
| COc1cc2cc(C3CC(C4CC4)=NN3C(C)=O)c(Cl)nc2cc1OC (stereo not drawn) [Compound Z431511574] | -6 |
| O=C(CCc1ccc(-c2ccccc2F)o1)Nc1cccc(NC(=O)CCn2ccnc2)c1 [Compound Z431623528] | 5 |
| Cc1ccccc1-n1c(=O)c2ccccc2n2c(=S)n(CN3CCN(CCC(C)C)CC3)nc12 [Compound Z431773138] | 44 |
| COc1cccc(OCCN2CCN(c3cc(C(C)(C)C)nc4c(-c5ccc(Cl)cc5)c(C)nn34)CC2)c1 [Compound Z431973470] | 12 |
| O=S1(=O)CCN(S(=O)(=O)Cl)CC1 [Compound Z432047124] | 0 |
| COc1cccc(OCCN2CCN(c3cc(C)nc4c(-c5ccc(F)cc5)c(C(F)(F)F)nn34)CC2)c1 [Compound Z432102126] | -1 |

Same assay, conditions: second screening, dissolved from fresh powder; n = 4; 10 μmol L−1 compound

| SMILES | Second screening IR (inhibition rate) [%] |
| --- | --- |
| CC(CCN1CCN(c2ccccc2)CC1)NC(=O)c1cc(-c2ccco2)nc2c1cnn2C(C)C (stereo not drawn) [Compound Z385234634] | 1 |
| O=C(NCCSCc1ccccc1)Nc1ccc(NC(=O)c2ccco2)cc1 [Compound Z412775020] | -16 |
